Assay [1] in a line: Catalytic AOP pretreatment of hybrid poplar with multi-ligand catalysts, then enzymatic hydrolysis (glucose conversion). Set-up: species or system Populus nigra var. charkoviensis×caudina cv. NE-19. The following applies: for Glucose (Glucose Conversions): hybrid poplar, 270 mM NaOH, 10% H2O2, 24 hrs 30° C. On the procedure: Enzymatic hydrolysis was performed on the solid poplar slurry at 50° C. in the same rotary shaker used for the extraction step. In preparation for hydrolysis, 20 μL of 72% (w/w) H2SO4 and 500 μL of 1 M sodium citrate buffer (pH 5) (prepared from sodium citrate and citric acid) were added to the solid poplar slurry to adjust the pH to 5 (optimum pH for the enzymes being used herein). Thereafter, 40 μL of 10 mM tetracycline (Sigma-Aldrich) stock solution was added to the solid poplar slurry to inhibit microbial growth. This step was followed by addition of a Cellic CTec2 and HTec2 (Novozymes A/S, Bagsværd, DK) enzyme cocktail at a loading of 30 mg protein/g glucan in the biomass prior to extraction and catalytic pretreatment, unless otherwise noted. The enzymatic reaction (50° C., 210 rpm, 72 hrs) was carried out at 5% solids concentration by adjusting the volume of the poplar slurry to 10 mL via the addition of deionized water.
Following enzymatic hydrolysis, the resulting solid and liquid phases were separated by centrifugation in same manner as in Example 2, to produce separated hydrolyzed solid and liquid phases. The amount of glucose and xylose released into the aqueous phase was quantified by High Performance Liquid Chromatography (HPLC) (Agilent 1260 Series equipped with an Aminex® HPX-87H column operating at 65° C., a mobile phase of 0.05 M H2SO4, and a flow rate of 0.6 mL per minute, and detection by refractive index). The yield of glucose and xylose released was defined as the amount of solubilized monosaccharide divided by the total sugar content of the poplar biomass prior to incubation and catalytic pretreatment as determined by chemical composition analysis.
Hybrid poplar (0.5 g) (same source as Example 2) was catalytically pretreated using 1 mM of a stock solution of multi-ligand copper complex, namely copper (II) 2,2′ bipyridine ethylenediamine (Cu(bpy)en) containing 40 mM copper sulphate pentahydrate, 40 mM bipyridine and 40 mM ethylenediamine in deionized water, together with 270 mM NaOH and 10% H2O2 loading (w/w) on biomass in a total 5 mL volume made with deionized water. Other components of the pretreatment catalyst include tetraacetylethylenediamine (TAED), ethylenediaminetetraacetic acid (EDTA), manganese sulfate, and magnesium sulfate. The catalytic pretreatment was allowed to proceed for approximately 24 hrs at 30° C.
Thereafter, the resulting poplar slurry was pH adjusted to 5 and hydrolyzed according to the process described in Example 3. Following enzymatic hydrolysis, the solid and liquid phases were separated by centrifugation as described in Example 3.

A short description of assay [2]: Metal-catalyzed AOP pretreatment of chelated woody biomass, then enzymatic hydrolysis. The following applies: [metal]:[bpy]=2 mM:4 mM; versus Mn-AOP and Fe-AOP; FIG. 30. The protocol:
Three different pretreatment strategies were tested on each of the biomass samples: alkali only, alkaline hydrogen peroxide (AOP), and copper-catalyzed AOP (Cu-AOP). In all cases, 0.51 g of biomass (approximately 0.5 g dry basis; about 3 to about 5% moisture content) was pretreated in a total of 5.0 mL aqueous solution (10% solids loading). For alkali-only pretreatment, the solution contained 50 mg NaOH (100 mg NaOH/g biomass), while AOP pretreatment also contained 150 μL of 30% H2O2 (100 mg H2O2/g biomass). […]
Following pretreatment, 0.5 mL of 1 M citric acid buffer (pH 4.8) was added to the pretreated slurry, and the slurry was slowly titrated with 72% (w/w) H2SO4 to adjust the pH to 5.0 prior to enzymatic hydrolysis. […] The protein concentrations of the stock enzyme cocktails were quantified as y described in X. Gao, R. Kumar, S. Singh, B. A. Simmons, V. Balan, B. E. Dale and C. […]
Following enzymatic hydrolysis, the solid and liquid phases were separated by centrifugation, and the amount of glucose and xylose released into the aqueous phase was quantified by HPLC (Agilent 1260 Series equipped with an Aminex® HPX-87H column operating at 65° C., a mobile phase of 0.05 M H2SO4, a flow rate of 0.6 mL/min, and detection using an Agilent 1260 infinity refractive index detector). […]

Assay [3] is described as follows: Catalyst screening with multi-ligand metal complexes: enzymatic digestibility of hybrid poplar after AOP pretreatment. Set-up: species or system Populus nigra var. charkoviensis×caudina cv. NE-19. The following applies: FIG. 1. On the procedure:
Metal complexes (hereinafter “metal catalysts”) containing multiple or single metal coordinating ligands were tested. The metal catalysts tested included copper catalysts having a second metal coordinating ligand substituted for at least a portion of the 2,2′-bipyridine. These catalysts were evaluated for their performance in further enhancing the efficacy of AOP pretreatment of hybrid poplar. Ligands involved in the screening included histidine, glycine, di(2-picolyl)amine (dipica, 97%), 1,4,7-triazacyclononane (TACN, 95%), 2,2′;6′,2″-terpyridine (Terpy, 98%), 1,10-phenanthroline (phen, ≥99%), and tris(2-pyridylmethyl)amine (TPA, 98%, obtained from Sigma-Aldrich and Acros Organics/0). An iron 2,2′-bipyridine complex was prepared by mixing ferrous sulfate heptahydrate with 2,2′-bipyridine in an aqueous solution, and this iron complex was also tested.
The hybrid poplar (Populus nigra var. charkoviensis×caudina cv. NE-19) used in this testing was grown at the University of Wisconsin Arlington Agricultural Research Station. The hybrid poplar was harvested in 2011 and debarked using methods known in the art at the University of Wisconsin, Madison to produce heartwood and sap wood (different parts of the wood stem which can be differentiated via chemical testing). […]

Assay [4] in a line: Catalytic AOP pretreatment of alkali-extracted switchgrass, then enzymatic hydrolysis (glucose yield). Set-up: species or system Panicum virgatum. To be noted: for Glucose yield of enzymatic hydrolysis (% of theoretical maximum): 24 hr AOP pretreatment of AESG, catalyst concentration per table. On the procedure: Screening of various metal ligand complexes (hereinafter “catalysts”) was performed via catalytic alkaline oxidative pretreatment (AOP) pretreatment of alkali-extracted switchgrass (AESG). To prepare AESG, 80 grams of untreated switchgrass (Panicum virgatum, cv. Cave-In-Rock, hammer milled to pass a 5-mm screen, and stored at a moisture content of approximately 5%) was soaked in an aqueous solution of 5 g/L NaOH at 80° C. for 2 hrs. The weight-to-volume (w/v) solids loading of switchgrass during alkaline extraction was 10% (e.g., 10 g of biomass in 100 mL NaOH solution). […] The washed solids was recovered as AESG and air-dried for over 7 days.
[Al(III)(3,5-^tBu2-salophen)Cl] [3,5-^tBu2-salophen=N,N′-bis(3,5-di-tert-butylsalicylidene)-1,2-phenylenediamine], [Zn(II)(BPPA)Cl]Cl [BPPA=N,N-bis(6-pivaloylamido-2-pyridylmethyl)-N-(2-pyridylmethyl)amine], and [NEt4][Fe(III)(bpb)Cl2]
To study the effect of catalytic AOP pretreatment on AESG, pretreatment was performed in a 100 g/L aqueous suspension of AESG in the presence of each catalyst. […] After 24 hrs of incubation at 30° C. without mixing, the pretreated switchgrass slurry was washed using deionized water to remove the alkaline phosphate buffer.
The enzymatic digestibility of AOP-pretreated switchgrass was estimated by the yield of glucose during the enzymatic hydrolysis of AOP pretreated AESG. The percentage yield was calculated on the basis of the glucan content in AESG prior to catalytic AOP pretreatment.
For enzymatic hydrolysis, 500 μL of 1 M Na-citrate buffer (pH 5) and 40 μL of 10 mM tetracycline (Sigma-Aldrich) were added to AOP-AESG that was not dried after catalytic AOP pretreatment. Accellerase 1500 (42 FPU/mL; Danisco-Genencor, Palo Alto, Calif.) was added at 50 mg protein per gram of glucan in AESG. The total volume of the mixture (solid and liquid) was adjusted with deionized water to reach a 5% (w/v) solids concentration, and the samples were incubated at 50° C. during hydrolysis.

[5] abbreviates: catalyst concentration not given.

As to `NCCN.[Cu+2].c1ccc(-c2ccccn2)nc1` [Cu(bpy)en, copper (II) 2,2′ bipyridine ethylenediamine], the “Glucose (Glucose Conversions)” value in assay [1] (catalyst 1 mM) stood at 55.00; in assay [1] (catalyst 2 mM), 48.15. The “Glucose yields compared to other catalyst systems” value in assay [1] (in words) is recorded as “higher glucose yields compared to other catalyst systems tested”.

For `O=S(=O)([O-])[O-].[Cu+2]` [CuSO4, copper sulfate], the “Glucose (Glucose Conversions)” value in assay [1] (setting [5]) is 40.62.

Turning to `O=S(=O)([O-])[O-].[Mg+2]` [MgSO4, magnesium sulfate], in assay [1] (setting [5]), the “Glucose (Glucose Conversions)” value was found to be 25.17.

As to “copper(II) 2,2′-bipyridine complex [Cu(bpy), L/M = 3:1]”, the “Enzymatic digestibility after metal-catalyzed AOP” value in assay [2] is “significantly higher enzymatic digestibility than the addition of either Mn(bpy) or Fe(bpy) complexes”. Also, in assay [3], the “Performance in enhancing AOP pretreatment of hybrid poplar (enzymatic digestibility)” value was “superior performance among all candidates”. Moreover, the “Glucose yield of enzymatic hydrolysis (% of theoretical maximum)” value in assay [4] (pH 10, 24 hrs hydrolysis) is given as 38.67 ± 0.3 % of theoretical maximum; in assay [4] (pH 10, 72 hrs hydrolysis), 42.98 ± 0.88 % of theoretical maximum; in assay [4] (pH 11, 24 hrs hydrolysis), 41.65 ± 0.14 % of theoretical maximum; in assay [4] (pH 11, 72 hrs hydrolysis), 44.97 ± 0.42 % of theoretical maximum; in assay [4] (pH 13, 24 hrs hydrolysis), 41.56 ± 0.06 % of theoretical maximum. Moreover, the “Improvement in enzymatic digestibility of AOP pretreated AESG” value in assay [4] (pH 11.5, versus no catalyst) was “very moderate improvement”.

Source of the values: patent US11530458B2, “Methods of using multi-ligand metal complexes to perform oxidative catalytic pretreatment of lignocellulosic biomass” (Board of Trustees of Michigan State University, priority 2014, dated 2022).
